One assay has as its system SNU5 cells. In words: SNU5 xenograft tumor model in CB.17-SCID mice. Type of assay: in vivo. The note with it: intravenous, 4 weeks; antibodies 1 mg/kg once a week, Irinotecan 10 mg/kg twice a week; initial size 100 mm^3. As for the experimental part: SNU5 cells (ATCC) were injected into dorsal subcutis of 5-6 week old CB.17-SCID mice (Shanghai SLAC Laboratory Animal Co. Ltd.) at the amount of 3×10^6 cell/mouse, to prepare tumor models. When the tumor volume reaches 100 mm^3, 1 mg/kg of L3-1Y-IgG2 and 1 mg/kg of anti-c-Met/anti-EGFR bispecific antibody ME22S were intravenously administered alone or in combination once a week for 4 weeks in total. A group where PBS is intravenously administered thereto was used as a negative control, and a group where 10 mg/kg of an anticancer drug, Irinotecan (Pfizer Inc.), was intravenously administered thereto twice a week for 4 weeks in total, was used as a positive control. The tumor size (length×breadth×height) was measured twice each week, and at the last week, the mice were autopsied.

The next assay addresses c-Met (Homo sapiens, UniProt P08581). In words: Specificity of expressed scFv of huAbF46. Format: binding. The note with it: after expression. The arrangement: endogenous in cells; host or cells: SNU638 (A8, A11); MKN45 (A11). From the text: For use in constructing an scFv of the huAbF46 antibody from the heavy and light chain variable regions of the huAbF46 antibody, a gene was designed to have the structure of “VH-linker-VL” for each of the heavy and the light chain variable region, with the linker including the amino acid sequence “[…]” (SEQ ID NO: 54). A polynucleotide sequence (SEQ ID NO: 55) encoding the designed scFv of huAbF46 was synthesized in Bioneer and an expression vector for the polynucleotide had the nucleotide sequence of SEQ ID NO: 56.

c-Met, sequence (P08581 25-1390): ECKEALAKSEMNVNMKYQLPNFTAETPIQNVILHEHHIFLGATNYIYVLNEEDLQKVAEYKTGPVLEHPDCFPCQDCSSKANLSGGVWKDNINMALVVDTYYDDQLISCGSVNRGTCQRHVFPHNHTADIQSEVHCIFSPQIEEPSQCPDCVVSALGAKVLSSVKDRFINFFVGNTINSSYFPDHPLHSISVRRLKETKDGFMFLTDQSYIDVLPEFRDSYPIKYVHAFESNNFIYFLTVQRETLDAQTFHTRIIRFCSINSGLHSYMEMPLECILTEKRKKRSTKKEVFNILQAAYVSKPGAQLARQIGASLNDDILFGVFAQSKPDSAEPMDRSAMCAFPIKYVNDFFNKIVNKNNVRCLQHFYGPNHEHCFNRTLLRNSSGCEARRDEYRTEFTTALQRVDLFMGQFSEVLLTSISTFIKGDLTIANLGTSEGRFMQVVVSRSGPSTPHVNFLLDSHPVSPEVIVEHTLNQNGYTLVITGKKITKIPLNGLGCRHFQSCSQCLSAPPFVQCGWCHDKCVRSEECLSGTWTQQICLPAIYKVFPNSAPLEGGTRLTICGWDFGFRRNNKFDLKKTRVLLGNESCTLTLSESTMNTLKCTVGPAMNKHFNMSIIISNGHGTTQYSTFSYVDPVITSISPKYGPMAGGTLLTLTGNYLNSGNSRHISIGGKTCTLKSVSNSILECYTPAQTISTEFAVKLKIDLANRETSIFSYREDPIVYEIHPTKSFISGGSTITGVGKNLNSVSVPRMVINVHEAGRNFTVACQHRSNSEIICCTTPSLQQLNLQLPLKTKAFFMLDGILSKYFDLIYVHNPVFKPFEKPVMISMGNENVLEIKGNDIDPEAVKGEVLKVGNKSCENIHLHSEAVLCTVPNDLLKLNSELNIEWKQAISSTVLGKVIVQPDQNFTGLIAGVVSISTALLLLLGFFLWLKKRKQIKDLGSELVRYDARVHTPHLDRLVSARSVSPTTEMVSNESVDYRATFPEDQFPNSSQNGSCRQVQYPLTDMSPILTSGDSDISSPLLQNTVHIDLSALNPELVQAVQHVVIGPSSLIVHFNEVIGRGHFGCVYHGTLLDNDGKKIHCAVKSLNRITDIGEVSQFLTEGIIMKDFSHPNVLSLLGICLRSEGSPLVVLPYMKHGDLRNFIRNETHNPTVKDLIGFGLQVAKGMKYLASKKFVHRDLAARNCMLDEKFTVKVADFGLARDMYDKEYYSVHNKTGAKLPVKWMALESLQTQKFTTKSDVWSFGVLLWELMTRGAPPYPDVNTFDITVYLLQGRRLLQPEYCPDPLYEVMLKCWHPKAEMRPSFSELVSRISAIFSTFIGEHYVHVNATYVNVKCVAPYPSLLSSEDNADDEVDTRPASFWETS

Regarding `CCc1c2c(nc3ccc(OC(=O)N4CCC(N5CCCCC5)CC4)cc13)-c1cc3c(c(=O)n1C2)COC(=O)[C@]3(O)CC` [Irinotecan, reference compound], the final tumor size result with SNU5 cells is “about 72 mm^3”.

B1: scFv of huAbF46: scFv of huAbF46, structure VH-linker-VL with linker SEQ ID NO: 54 (protein)
scFv: EVQLVESGGGLVQPGGSLRLSCAASGFTFTDYYMSWVRQAPGKGLEWLGFIRNKANGYTTEYSASVKGRFTISRDNSKNTLYLQMNSLRAEDTAVYYCARDNWFAYWGQGTLVTVSSGLGGLGGGGSGGGGSGGSSGVGSDIQMTQSPSSLSASVGDRVTITCKSSQSLLASGNQNNYLAWHQQKPGKAPKMLIIWASTRVSGVPSRFSGSGSGTDFTLTISSLQPEDFATYYCQQSYSAPLTFGQGTKVEIKR
Consider B1, for which, in the assay with c-Met, the “specificity to c-Met” value is given as “exhibit specificity to c-Met”.

The values are drawn from patent US9902776B2, “Anti-EGFR antibody and anti-c-Met/anti-EGFR bispecific antibodies comprising the same” (Samsung Electronics Co., Ltd., priority 2013, dated 2018).
